Laboratory results from patent US10499640B2, “Herbicidal compounds” (SYNGENTA PARTICIPATIONS AG, priority 2014, dated 2019).

Key:
Type in all cases: in vivo
Setaria faberi (SETFA) [1] = assay: Pre-emergence herbicidal activity, glasshouse pot test; parameters: key: 5=total damage to plant; 0=no damage to plant; conditions: Rate 1000 g/Ha; sprayed one day after sowing; evaluated after 13 days; scale 0-5
Description: (§1) Seeds of a variety of test species were sown in standard soil in pots. After cultivation for one day (pre-emergence) under controlled conditions in a glasshouse (at 24/16° C., day/night; 14 hours light; 65% humidity), the plants were sprayed with an aqueous spray solution derived from the formulation of the technical active ingredient in acetone/water (50:50) solution containing 0.5% Tween 20 (polyoxyethelyene sorbitan monolaurate, CAS RN 9005-64-5). The test plants were then grown in a glasshouse under controlled conditions (at 24/16° C., day/night; 14 hours light; 65% humidity) and watered twice daily. After 13 days, the test was evaluated (5=total damage to plant; 0=no damage to plant).

[2] = system: Abutilon theophrasti (ABUTH); assay: as above; parameters: key: 5=total damage to plant; 0=no damage to plant; conditions: Rate 1000 g/Ha; sprayed one day after sowing; evaluated after 13 days; scale 0-5
Description: as §1

[3] = system: Amaranthus retroflexus (AMARE); assay: as above; parameters: key: 5=total damage to plant; 0=no damage to plant; conditions: Rate 1000 g/Ha; sprayed one day after sowing; evaluated after 13 days; scale 0-5
Description: as §1

[4] = system: Alopecurus myosuroides (ALOMY); assay: as above; parameters: key: 5=total damage to plant; 0=no damage to plant; conditions: Rate 1000 g/Ha; sprayed one day after sowing; evaluated after 13 days; scale 0-5
Description: as §1

[5] = system: Echinochloa crus-galli (ECHCG); assay: as above; parameters: key: 5=total damage to plant; 0=no damage to plant; conditions: Rate 1000 g/Ha; sprayed one day after sowing; evaluated after 13 days; scale 0-5
Description: as §1

Setaria faberi (SETFA) [6] = assay: Post-emergence herbicidal activity, glasshouse pot test; parameters: key: 5=total damage to plant; 0=no damage to plant; conditions: Rate 1000 g/Ha; sprayed after 8 days cultivation; evaluated after 13 days; scale 0-5
Description: (§2) Seeds of a variety of test species were sown in standard soil in pots. After 8 days cultivation (post-emergence) under controlled conditions in a glasshouse (at 24/16° C., day/night; 14 hours light; 65% humidity), the plants were sprayed with an aqueous spray solution derived from the formulation of the technical active ingredient in acetone/water (50:50) solution containing 0.5% Tween 20 (polyoxyethelyene sorbitan monolaurate, CAS RN 9005-64-5). The test plants were then grown in a glasshouse under controlled conditions (at 24/16° C., day/night; 14 hours light; 65% humidity) and watered twice daily. After 13 days, the test was evaluated (5=total damage to plant; 0=no damage to plant).

Zea mays (ZEAMX) [7] = assay: as above; parameters: key: 5=total damage to plant; 0=no damage to plant; conditions: Rate 1000 g/Ha; sprayed after 8 days cultivation; evaluated after 13 days; scale 0-5
Description: as §2

[8] = system: Abutilon theophrasti (ABUTH); assay: as above; parameters: key: 5=total damage to plant; 0=no damage to plant; conditions: Rate 1000 g/Ha; sprayed after 8 days cultivation; evaluated after 13 days; scale 0-5
Description: as §2

[9] = system: Amaranthus retroflexus (AMARE); assay: as above; parameters: key: 5=total damage to plant; 0=no damage to plant; conditions: Rate 1000 g/Ha; sprayed after 8 days cultivation; evaluated after 13 days; scale 0-5
Description: as §2

[10] = system: Alopecurus myosuroides (ALOMY); assay: as above; parameters: key: 5=total damage to plant; 0=no damage to plant; conditions: Rate 1000 g/Ha; sprayed after 8 days cultivation; evaluated after 13 days; scale 0-5
Description: as §2

[11] = system: Echinochloa crus-galli (ECHCG); assay: as above; parameters: key: 5=total damage to plant; 0=no damage to plant; conditions: Rate 1000 g/Ha; sprayed after 8 days cultivation; evaluated after 13 days; scale 0-5
Description: as §2

Zea mays (ZEAMX) [12] = assay: Pre-emergence herbicidal activity, glasshouse pot test; conditions: Rate 1000 g/Ha; sprayed one day after sowing; evaluated after 13 days; scale 0-5
Description: as §1

CC1C(O)N(c2cc(C(C)(C)F)on2)C(=O)N1C (stereo not drawn) [Compound A2, 1-[5-(1-fluoro-1-methyl-ethyl)isoxazol-3-yl]-5-hydroxy-3,4-dimethyl-imidazolidin-2-one]
SETFA damage score, application pre-emergence (Setaria faberi (SETFA) [1]): 4
ABUTH damage score, application pre-emergence [2]: 5
AMARE damage score, application pre-emergence [3]: 5
ALOMY damage score, application pre-emergence [4]: 4
ECHCG damage score, application pre-emergence [5]: 4
SETFA damage score, application post-emergence (Setaria faberi (SETFA) [6]): 5
ZEAMX damage score, application post-emergence (Zea mays (ZEAMX) [7]): 5
ABUTH damage score, application post-emergence [8]: 5
AMARE damage score, application post-emergence [9]: 5
ALOMY damage score, application post-emergence [10]: 5
ECHCG damage score, application post-emergence [11]: 5
ZEAMX damage score, application pre-emergence (Zea mays (ZEAMX) [12]): 2

CC(C)(C#N)c1cc(N2C(=O)NCC2O)no1 (stereo not drawn) [Compound A8]
SETFA damage score, application pre-emergence (Setaria faberi (SETFA) [1]): 1
ABUTH damage score, application pre-emergence [2]: 5
AMARE damage score, application pre-emergence [3]: 5
ALOMY damage score, application pre-emergence [4]: 0
ECHCG damage score, application pre-emergence [5]: 1
SETFA damage score, application post-emergence (Setaria faberi (SETFA) [6]): 3
ZEAMX damage score, application post-emergence (Zea mays (ZEAMX) [7]): 1
ABUTH damage score, application post-emergence [8]: 5
AMARE damage score, application post-emergence [9]: 4
ALOMY damage score, application post-emergence [10]: 2
ECHCG damage score, application post-emergence [11]: 3
ZEAMX damage score, application pre-emergence (Zea mays (ZEAMX) [12]): 1

CC1C(O)N(c2cc(C(C)(C)C#N)on2)C(=O)N1C (stereo not drawn) [Compound A5]
SETFA damage score, application pre-emergence (Setaria faberi (SETFA) [1]): 5
ABUTH damage score, application pre-emergence [2]: 5
AMARE damage score, application pre-emergence [3]: 5
ALOMY damage score, application pre-emergence [4]: 4
ECHCG damage score, application pre-emergence [5]: 5
SETFA damage score, application post-emergence (Setaria faberi (SETFA) [6]): 5
ZEAMX damage score, application post-emergence (Zea mays (ZEAMX) [7]): 5
ABUTH damage score, application post-emergence [8]: 5
AMARE damage score, application post-emergence [9]: 5
ALOMY damage score, application post-emergence [10]: 5
ECHCG damage score, application post-emergence [11]: 5
ZEAMX damage score, application pre-emergence (Zea mays (ZEAMX) [12]): 3

CON1C(=O)N(c2cc(C(C)(C)F)on2)C(O)C1C (stereo not drawn) [Compound A1, 1-[5-(1-fluoro-1-methyl-ethyl)isoxazol-3-yl]-5-hydroxy-3-methoxy-4-methyl-imidazolidin-2-one]
SETFA damage score, application pre-emergence (Setaria faberi (SETFA) [1]): 4
ABUTH damage score, application pre-emergence [2]: 5
AMARE damage score, application pre-emergence [3]: 5
ALOMY damage score, application pre-emergence [4]: 4
ECHCG damage score, application pre-emergence [5]: 4
SETFA damage score, application post-emergence (Setaria faberi (SETFA) [6]): 5
ZEAMX damage score, application post-emergence (Zea mays (ZEAMX) [7]): 5
ABUTH damage score, application post-emergence [8]: 5
AMARE damage score, application post-emergence [9]: 5
ALOMY damage score, application post-emergence [10]: 5
ECHCG damage score, application post-emergence [11]: 5
ZEAMX damage score, application pre-emergence (Zea mays (ZEAMX) [12]): 2

CC1NC(=O)N(c2cc(C(C)(C)C#N)on2)C1O (stereo not drawn) [Compound A7]
SETFA damage score, application pre-emergence (Setaria faberi (SETFA) [1]): 4
ABUTH damage score, application pre-emergence [2]: 5
AMARE damage score, application pre-emergence [3]: 5
ALOMY damage score, application pre-emergence [4]: 4
ECHCG damage score, application pre-emergence [5]: 4
SETFA damage score, application post-emergence (Setaria faberi (SETFA) [6]): 4
ZEAMX damage score, application post-emergence (Zea mays (ZEAMX) [7]): 3
ABUTH damage score, application post-emergence [8]: 5
AMARE damage score, application post-emergence [9]: 5
ALOMY damage score, application post-emergence [10]: 4
ECHCG damage score, application post-emergence [11]: 4
ZEAMX damage score, application pre-emergence (Zea mays (ZEAMX) [12]): 2

CN1CC(O)N(c2cc(C(C)(C)C#N)on2)C1=O (stereo not drawn) [Compound A4]
SETFA damage score, application pre-emergence (Setaria faberi (SETFA) [1]): 5
ABUTH damage score, application pre-emergence [2]: 5
AMARE damage score, application pre-emergence [3]: 5
ALOMY damage score, application pre-emergence [4]: 4
ECHCG damage score, application pre-emergence [5]: 5
SETFA damage score, application post-emergence (Setaria faberi (SETFA) [6]): 5
ZEAMX damage score, application post-emergence (Zea mays (ZEAMX) [7]): 5
ABUTH damage score, application post-emergence [8]: 5
AMARE damage score, application post-emergence [9]: 5
ALOMY damage score, application post-emergence [10]: 5
ECHCG damage score, application post-emergence [11]: 5
ZEAMX damage score, application pre-emergence (Zea mays (ZEAMX) [12]): 4

CN1CC(O)N(c2cc(C(C)(C)F)on2)C1=O (stereo not drawn) [Compound A3]
SETFA damage score, application pre-emergence (Setaria faberi (SETFA) [1]): 4
ABUTH damage score, application pre-emergence [2]: 5
AMARE damage score, application pre-emergence [3]: 5
ALOMY damage score, application pre-emergence [4]: 4
ECHCG damage score, application pre-emergence [5]: 5
SETFA damage score, application post-emergence (Setaria faberi (SETFA) [6]): 5
ZEAMX damage score, application post-emergence (Zea mays (ZEAMX) [7]): 5
ABUTH damage score, application post-emergence [8]: 5
AMARE damage score, application post-emergence [9]: 5
ALOMY damage score, application post-emergence [10]: 5
ECHCG damage score, application post-emergence [11]: 5
ZEAMX damage score, application pre-emergence (Zea mays (ZEAMX) [12]): 2

CC(C)(C)c1cc(N2C(=O)N3CCCCC3C2O)no1 (stereo not drawn) [Compound A26]
SETFA damage score, application pre-emergence (Setaria faberi (SETFA) [1]): 4
ABUTH damage score, application pre-emergence [2]: 5
AMARE damage score, application pre-emergence [3]: 5
ALOMY damage score, application pre-emergence [4]: 4
ECHCG damage score, application pre-emergence [5]: 4
SETFA damage score, application post-emergence (Setaria faberi (SETFA) [6]): 5
ZEAMX damage score, application post-emergence (Zea mays (ZEAMX) [7]): 5
ABUTH damage score, application post-emergence [8]: 5
AMARE damage score, application post-emergence [9]: 5
ALOMY damage score, application post-emergence [10]: 5
ECHCG damage score, application post-emergence [11]: 5
ZEAMX damage score, application pre-emergence (Zea mays (ZEAMX) [12]): 3
